This note sets out measurements from patent publication US20260159520A1, “HETEROBIFUNCTIONAL COMPOUNDS AND METHODS OF TREATING DISEASE” (Halda Therapeutics OpCo, Inc., priority 2022, published 2026).

pKd: −log10 of the molar value. Some results are limits rather than exact numbers.

Experiment [1] addresses T1, androgen receptor (Homo sapiens, UniProt P10275).
T1 construct: endogenous in cells; host or cells: unnamed cells (cytosol fraction)
T1 sequence (P10275 1-920): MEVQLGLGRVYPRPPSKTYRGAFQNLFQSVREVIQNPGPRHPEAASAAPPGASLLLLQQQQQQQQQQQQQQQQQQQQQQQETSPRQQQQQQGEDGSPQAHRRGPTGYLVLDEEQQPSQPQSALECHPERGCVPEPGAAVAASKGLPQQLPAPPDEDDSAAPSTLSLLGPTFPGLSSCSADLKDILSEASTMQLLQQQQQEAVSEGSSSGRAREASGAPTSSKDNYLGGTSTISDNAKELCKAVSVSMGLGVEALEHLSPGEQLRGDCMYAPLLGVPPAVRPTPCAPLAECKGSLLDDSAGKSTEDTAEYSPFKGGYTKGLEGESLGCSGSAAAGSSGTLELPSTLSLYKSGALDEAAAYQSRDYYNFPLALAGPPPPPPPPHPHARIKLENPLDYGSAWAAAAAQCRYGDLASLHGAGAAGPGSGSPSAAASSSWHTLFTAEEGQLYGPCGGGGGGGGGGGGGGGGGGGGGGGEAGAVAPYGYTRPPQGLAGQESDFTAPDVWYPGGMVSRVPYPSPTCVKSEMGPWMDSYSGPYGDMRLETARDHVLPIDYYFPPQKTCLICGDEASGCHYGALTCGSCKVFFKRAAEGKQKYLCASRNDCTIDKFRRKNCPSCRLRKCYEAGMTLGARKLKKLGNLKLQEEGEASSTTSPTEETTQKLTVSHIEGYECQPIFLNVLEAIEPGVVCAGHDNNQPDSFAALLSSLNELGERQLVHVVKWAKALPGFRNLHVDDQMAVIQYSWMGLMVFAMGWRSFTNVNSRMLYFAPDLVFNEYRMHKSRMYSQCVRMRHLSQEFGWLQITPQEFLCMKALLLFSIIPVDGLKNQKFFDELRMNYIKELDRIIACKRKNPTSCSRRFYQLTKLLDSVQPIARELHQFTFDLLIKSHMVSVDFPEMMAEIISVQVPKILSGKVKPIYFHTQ
Nature of the experiment: Binding affinity to androgen receptor ([3H]methyltrienolone radioligand, cell cytosol). Conditions: Table 6. The procedure: Fractions of cell cytosol ([…]) were incubated for 24 hr at 4° C. with 1 nM [^3H]methyltrienolone in the absence or presence of the test compound in a buffer containing 25 mM Hepes-Tris (pH 7.4), 1 mM EDTA, 10 mM Na2MoO4, 2 mM DTT, 5 μM triamcinolone acetonide, and 10% glycerol. Nonspecific binding was determined in the presence of 1 μM testosterone. Following incubation, the samples were filtered rapidly under vacuum through glass fiber filters (GF/B, Packard) presoaked with 0.3% PEI and rinsed several times with ice-cold 50 mM Tris-HCl using a 96-sample cell harvester (Unifilter, Packard). The filters were dried then counted for radioactivity in a scintillation counter (Topcount, Packard) using a scintillation cocktail (Microscint 0, Packard). The results are expressed as a percent inhibition of the control radioligand specific binding. The standard reference compound is testosterone, which is tested in each experiment at several concentrations to obtain a competition curve from which its IC50 is calculated.

Experiment [2] has as its target T2, CDK9 (Homo sapiens, UniProt P50750).
T2 construct: made in house; host or cells: E. coli BL21-derived host (T7 phage) or HEK-293 ('BEK-293' [sic])
Kind of experiment: KdELECT binding assay, CDK9. Conditions: CDK9, Table 7. The protocol: Compounds were tested using a KdELECT. Kinase-tagged T7 phage strains were prepared in an E. coli host derived from the BL21 strain. E. coli were grown to log-phase and infected with T7 phage and incubated with shaking at 32° C. until lysis. The lysates were centrifuged and filtered to remove cell debris. The remaining kinases were produced in BEK-293 cells and subsequently tagged with DNA for qPCR detection. Streptavidin-coated magnetic beads were treated with biotinylated small molecule ligands for 30 minutes at room temperature to generate affinity resins for kinase assays. The liganded beads were blocked with excess biotin and washed with blocking buffer (SeaBlock (Pierce), 1% BSA, 0.05% Tween 20, 1 mM DTT) to remove unbound ligand and to reduce non-specific binding. Binding reactions were assembled by combining kinases, liganded affinity beads, and test compounds in 1× binding buffer (20% SeaBlock, 0.17×PBS, 0.05% Tween 20, 6 mM DTT). Test compounds were prepared as 111× stocks in 100% DMSO. Kd values were determined using an 11-point 3-fold compound dilution series with three DMSO control points. All compounds for Kd measurements are distributed by acoustic transfer (non-contact dispensing) in 100% DMSO. The compounds were then diluted directly into the assays such that the final concentration of DMSO was 0.9%. All reactions performed in polypropylene 384-well plate. Each was a final volume of 0.02 mL. The assay plates were incubated at room temperature with shaking for 1 hour and the affinity beads were washed with wash buffer (lx PBS, 0.05% Tween 20). The beads were then re-suspended in elution buffer (lx PBS, 0.05% Tween 20, 0.5 μM nonbiotinylated affinity ligand) and incubated at room temperature with shaking for 30 minutes. The kinase concentration in the eluates was measured by qPCR.

T2 sequence (P50750 whole entry): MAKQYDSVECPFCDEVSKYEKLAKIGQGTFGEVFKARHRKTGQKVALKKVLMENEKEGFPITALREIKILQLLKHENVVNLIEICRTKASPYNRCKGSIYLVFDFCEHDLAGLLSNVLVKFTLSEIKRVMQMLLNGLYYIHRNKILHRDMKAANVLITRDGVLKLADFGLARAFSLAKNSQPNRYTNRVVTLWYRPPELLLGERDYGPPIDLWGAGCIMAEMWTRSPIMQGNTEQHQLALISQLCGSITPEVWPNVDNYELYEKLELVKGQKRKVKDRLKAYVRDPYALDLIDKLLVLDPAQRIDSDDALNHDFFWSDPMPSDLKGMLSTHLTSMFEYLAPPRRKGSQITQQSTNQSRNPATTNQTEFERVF

By pKd is commonly meant −log10 of the Kd, conventionally taken in molar units. A low value points to a large Kd. `CCc1cnn2c(NCc3ccc(OCCCN4CCN(CC5CCN(c6ccc(C(=O)N[C@H]7C(C)(C)[C@H](Oc8ccc(C#N)c(Cl)c8)C7(C)C)cn6)CC5)CC4)nc3)cc(N3CCCC[C@@H]3CCO)nc12` [Compound I-55, N-((1r,3r)-3-(3-chloro-4-cyanophenoxy)-2,2,4,4-tetramethylcyclobutyl)-6-(4-((4-(3-((5-(((3-ethyl-5-((R)-2-(2-hydroxyethyl)piperidin-1-yl)pyrazolo[1,5-a]pyrimidin-7-yl)amino)methyl)pyridin-2-yl)oxy)propyl)piperazin-1-yl)methyl)piperidin-1-yl)nicotinamide]: the pKd in experiment [1] is > 7.30.
For the compound `CCc1cnn2c(NCc3ccc(N4CCC(CN5CCC6CN(c7ncc(C(=O)N[C@H]8C(C)(C)[C@H](Oc9ccc(C#N)c(Cl)c9)C8(C)C)cn7)CCC6C5)CC4)nc3)cc(N3CCCC[C@H]3CCO)nc12` (some centres unmarked) [Compound I-71], the pKd in experiment [1] is > 7.30.
With `CCc1cnn2c(NCc3ccc(OCCOCC4CCN(CC5CCN(c6ncc(C(=O)N[C@H]7C(C)(C)[C@H](Oc8ccc(C#N)c(Cl)c8)C7(C)C)cn6)CC5)CC4)nc3)cc(N3CCCC[C@H]3CCO)nc12` [Compound I-45], the pKd in experiment [1] and in experiment [2] was > 7.30 each time.
Regarding `CC(C)n1cc(-c2ccnc3[nH]c(C4CCN(CCN5CCN(CC6CCN(c7ncc(C(=O)NC8C(C)(C)C(Oc9ccc(C#N)c(Cl)c9)C8(C)C)cn7)CC6)CC5)CC4)cc23)ccc1=O` (centres unmarked) [Compound I-74, N-[3-(3-chloro-4-cyano-phenoxy)-2,2,4,4-tetramethyl-cyclobutyl]-2-[4-[[4-[2-[4-[4-(1-isopropyl-6-oxo-3-pyridyl)-1H-pyrrolo [2,3-b]pyridin-2-yl]-1-piperidyl]ethyl]piperazin-1-yl]methyl]-1-piperidyl]pyrimidine-5-carboxamide], in experiment [2], the pKd is > 7.30.
In experiment [2], `CCc1cnn2c(NCc3ccc(OCC4CCN(CC5CCN(c6ncc(C(=O)N[C@H]7C(C)(C)[C@H](Oc8ccc(C#N)c(Cl)c8)C7(C)C)cn6)CC5)CC4)nc3)cc(N3CCCC[C@H]3CCO)nc12` [Compound I-51] had a pKd of 6.30 to 7.30.
`CCc1cnn2c(NCc3ccc(OCCCN4CCC(C5CN(c6ncc(C(=O)N[C@H]7C(C)(C)[C@H](Oc8ccc(C#N)c(Cl)c8)C7(C)C)cn6)C5)CC4)nc3)cc(N3CCCC[C@H]3CCO)nc12` [Compound I-61]: the pKd in experiment [1] is > 7.30.
As for `Cc1ncc(-c2nc(Nc3ccc(C(=O)N4CC[C@H](N(C)CCOCCOCCOCCOCCOC5CCN(c6ncc(C(=O)N[C@H]7C(C)(C)[C@H](Oc8ccc(C#N)c(Cl)c8)C7(C)C)cn6)CC5)C4)cc3)ncc2F)n1C(C)C` [Compound I-97], in experiment [2], the pKd was 6.30 to 7.30.
For the compound `Cc1ncc(-c2nc(Nc3ccc(C(=O)N4CC[C@H](N(C)CCOCCOCCOC5CCN(c6ncc(C(=O)N[C@H]7C(C)(C)[C@H](Oc8ccc(C#N)c(Cl)c8)C7(C)C)cn6)CC5)C4)cc3)ncc2F)n1C(C)C` [Compound I-96], in experiment [2], the pKd is 6.30 to 7.30.
For the compound `CCc1cnn2c(NCc3ccc(OC4CCN(CC5CCN(c6ncc(C(=O)N[C@H]7C(C)(C)[C@H](Oc8ccc(C#N)c(Cl)c8)C7(C)C)cn6)CC5)CC4)nc3)cc(N3CCCC[C@H]3CCO)nc12` [Compound I-46], in experiment [2], the pKd was > 7.30.
On the same count and under the same terms, in the case of `CC1(C)[C@H](NC(=O)c2cnc(N3CCC(CN4CCN(CCN5C/C=C/CCOc6cccc(c6)-c6ccnc(n6)Nc6cccc(c6)C5)CC4)CC3)nc2)C(C)(C)[C@H]1Oc1ccc(C#N)c(Cl)c1` [Compound I-94] it was 5.60 to 6.30.
As for `CCc1cnn2c(NCc3ccc(N4CC(OCCN5CC6CN(c7ncc(C(=O)N[C@H]8C(C)(C)[C@H](Oc9ccc(C#N)c(Cl)c9)C8(C)C)cn7)CC6C5)C4)nc3)cc(N3CCCC[C@H]3CCO)nc12` (some centres unmarked) [Compound I-72], in experiment [1], the pKd is > 7.30.
`CCc1cnn2c(NCc3ccc(=O)n(CCOCCOCCOCCOCCOCCOCCN(C)c4ncc(C(=O)N[C@H]5C(C)(C)[C@H](Oc6ccc(C#N)c(Cl)c6)C5(C)C)cn4)c3)cc(N3CCCC[C@H]3CCO)nc12` [Compound I-4, N-((1r,3r)-3-(3-chloro-4-cyanophenoxy)-2,2,4,4-tetramethylcyclobutyl)-2-((20-(5-(((3-ethyl-5-((S)-2-(2-hydroxyethyl)piperidin-1-yl)pyrazolo[1,5-a]pyrimidin-7-yl)amino)methyl)-2-oxopyridin-1(2H)-yl)-3,6,9,12,15,18-hexaoxaicosyl)(methyl)amino)pyrimidine-5-carboxamide]: the pKd in experiment [1] was > 7.30.
In the case of `CCc1cnn2c(NCc3ccc(OCCOCCOCCOCCOCCOCCOCCN(C)c4ncc(C(=O)N[C@H]5C(C)(C)[C@H](Oc6ccc(C#N)c(Cl)c6)C5(C)C)cn4)nc3)cc(N3CCCC[C@H]3CCO)nc12` [Compound I-5], in experiment [1], the pKd is > 7.30.
As for `CCc1cnn2c(NCc3ccc(OCCN4CCN(CC5CCN(c6ncc(C(=O)N[C@H]7C(C)(C)[C@H](Oc8ccc(C#N)c(Cl)c8)C7(C)C)cn6)CC5)CC4)nc3)cc(N3CCCC[C@H]3CCO)nc12` [Compound I-41], in experiment [2], the pKd was 6.30 to 7.30.
As for `CCc1cnn2c(NCc3ccc(OCCCN4CCN(CC5CCN(c6ccc(C(=O)N[C@H]7C(C)(C)[C@H](Oc8ccc(C#N)c(Cl)c8)C7(C)C)cc6)CC5)CC4)nc3)cc(N3CCCC[C@@H]3CCO)nc12` [II-1, N-((1r,3r)-3-(3-chloro-4-cyanophenoxy)-2,2,4,4-tetramethylcyclobutyl)-4-(4-((4-(3-((5-(((3-ethyl-5-((R)-2-(2-hydroxyethyl)piperidin-1-yl)pyrazolo[1,5-a]pyrimidin-7-yl)amino)methyl)pyridin-2-yl)oxy)propyl)piperazin-1-yl)methyl)piperidin-1-yl)benzamide], the pKd in experiment [1] is > 7.30.
In experiment [2], `CCc1cnn2c(NCc3ccc(OCCOCCOCCOCCOCCN(C)c4ncc(C(=O)N[C@H]5C(C)(C)[C@H](Oc6ccc(C#N)c(Cl)c6)C5(C)C)cn4)nc3)cc(N3CCCC[C@H]3CCO)nc12` [Compound I-3] had a pKd of 6.30 to 7.30.
For the compound `Cc1ncc(-c2nc(Nc3ccc(C(=O)N4CC[C@H](N(C)CCOC5CCN(c6ncc(C(=O)N[C@H]7C(C)(C)[C@H](Oc8ccc(C#N)c(Cl)c8)C7(C)C)cn6)CC5)C4)cc3)ncc2F)n1C(C)C` [Compound I-95, N-[3-(3-chloro-4-cyano-phenoxy)-2,2,4,4-tetramethyl-cyclobutyl]-2-[4-[2-[[(3S)-1-[4-[[5-fluoro-4-(3-isopropyl-2-methyl-imidazol-4-yl)pyrimidin-2-yl]amino]benzoyl]pyrrolidin-3-yl]-methyl-amino]ethoxy]-1-piperidyl]pyrimidine-5-carboxamide], the pKd in experiment [2] was 6.30 to 7.30.
Turning to `CCc1cnn2c(NCc3ccc(OCCCN4CCN(C5CN(c6ncc(C(=O)N[C@H]7C(C)(C)[C@H](Oc8ccc(C#N)c(Cl)c8)C7(C)C)cn6)C5)CC4)nc3)cc(N3CCCC[C@H]3CCO)nc12` [Compound I-60], the pKd in experiment [1] was > 7.30.
In the case of `CCc1cnn2c(NCc3ccc(OCCCCN4CCN(CC5CCN(c6ncc(C(=O)N[C@H]7C(C)(C)[C@H](Oc8ccc(C#N)c(Cl)c8)C7(C)C)cn6)CC5)CC4)nc3)cc(N3CCCC[C@H]3CCO)nc12` [Compound I-43], the pKd in experiment [1] was > 7.30.
